# US20160175457A1, “OCULAR DEVICE” (DSM IP ASSETS B.V., priority 2013, published 2016)
# Entries after “also recorded” stand apart in the source; their conditions may differ. Like-named read-outs stand apart in the source and are kept apart here. No end group written: not given here.
# Legend:
# [1] = tested on: proteinases present in tear fluid (contact lens rinsing liquid); experiment: Incubation of synthetic peptides with tear fluid / contact lens rinsing liquid, cleavage followed by mass spectrometry; assay type: biochemical, human; settings: for endoproteolytic cleavage after Arg or Val by tear fluid / proteolytic cleavage observed after incubation with tear fluid (rinsing fluid): 162 hours (FIG. 2) / 165 hours at 25 degrees C.
# Description: (§1) Stock solutions (1 mg/ml in 5% acetonitrile) were prepared from the synthetic peptide substrates. The stock solutions are optionally 10× diluted with MilliQ water prior to incubation. Elastase (Sigma #: E7885), Tryptase (Sigma #: T7063), or tear fluid were added to the diluted substrate solutions and incubation was performed at 25° C. Aliquots of 20 μl were taken at several time points to monitor substrate degradation.
# (§2) The aliquots were 10× diluted in 50% acetonitrile, 0.1% formic acid prior to analysis. Mass Spectrometric (MS) analysis was performed by infusion in the LTQ-Orbitrap Fourier Transform Mass Spectrometer (Thermo Fisher, Bremen, Germany). Infusion was performed by mixing 10 μl min^−1 of sample in a 200 μl min^−1 flow of 50% acetonitrile, 0.1% formic acid. The MS analysis was performed in the Orbitrap scanning at 7500 resolution using 200-1600 m/z mass range. Proteolytic activity during the different incubations of the synthetic peptides substrates was studied by manual inspection of the MS data using the Qual browser in the XCalibur software (Thermo Fisher, Bremen, Germany).
# Contact lens wearing subjects were invited to participate at the end of their working day. Using sterilized gloves, lenses were removed and the inner surface of each lens was rinsed with 250 microliter of sterilized water. Then 100 microliter samples of the rinsing liquid were incubated overnight at 25 degrees C. with 100 μl of a 1.0 mg/ml BODIPY TR-X casein solution (EnzChek Protease Assay kit ‘Red fluorescence’; Molecular Probes, Eugene, Oreg., USA). Throughout the incubation the fluorescence of the samples was measured every minute (kinetic measurement) according to the EnzChek kit protocol (excitation=590±10 nm, emission=645±20 nm) using a Tecan Infinite M1000 microtiterplate reader (Männedorf, Switzerland).
# After its purification, the peptide was incubated with contact lens rinsing liquid (cf. Example 1) of a single individual and incubated over the weekend at 25° C. Then samples of the incubation liquid were subjected to mass spectrometry to confirm cleavage. […] An incubation of the peptide with human leukocyte elastase (Sigma Aldrich) yielded GPLALL and AQ as the major cleavage products. An incubation of the peptide with human lung tryptase (also from Sigma Aldrich) yielded GPLAL/LAQ as the major cleavage products (see FIG. 1). The latter observations indicate that a peptide incorporating aliphatic hydrophobic residues like Ala and Leu support cleavage by human, tryptase- and elastase-like enzymes.
# In this Example we test the cleavage activity of tear fluid on two, slightly different synthetic peptides. The first peptide comprises Arg as a charged, basic residue (Ala-Ala-Pro-Arg-Ala-Ala-Arg-Gln, AAPRAARQ (SEQ ID NO: 4)) in order to facilitate cleavage by trypsin-like endoproteases. The second peptide comprises the medium sized aliphatic hydrophobic residue Val instead of Arg (Ala-Ala-Pro-Val-Ala-Ala-Arg-Gln, AAPVAARQ (SEQ ID NO: 5)) in order to facilitate cleavage by elastase-like endoproteases. The experiment was executed essentially as described in Example 2, but in this case tear fluid of four different individuals was obtained and incubated for 165 hours at 25 degrees C. Samples of the incubation liquid were again subjected to mass spectrometry.
# [2] = tested on: human leukocyte elastase; experiment: Incubation of synthetic peptides with human leukocyte elastase, mass spectrometry; assay type: biochemical
# Description: as §1, §2
# (§3) After its purification, the peptide was incubated with contact lens rinsing liquid (cf. Example 1) of a single individual and incubated over the weekend at 25° C. Then samples of the incubation liquid were subjected to mass spectrometry to confirm cleavage. […]
# [3] = tested on: human lung tryptase; experiment: Incubation of synthetic peptide with human lung tryptase, mass spectrometry; assay type: biochemical; settings: 25° C., overnight (FIG. 1)
# Description: as §1, §2, §3
# [4] = tested on: T1, peptide Gly-Pro-Leu-Ala-Leu-Leu-Ala-Gln (GPLALLAQ)
# T1 sequence: GPLALLAQ
# [5] = tested on: proteinases in contact lens rinsing liquid (tear fluid); experiment: Incubation of hyaluronic acid-peptide-HEMA conjugate with lyophilized contact lens rinsing liquid, LC-MS of peptide-HEMA fragments; assay type: biochemical, human; settings: 35 hours at 35° C., rinsing liquid of five individuals (hard and soft lenses)
# Text: (§4) To cope with this experimental difficulty, we decided to focus on the identification of Peptide-HEMA fragments that can be expected to be released from the hyaluronic acid-peptide-HEMA conjugate upon exposure to a suitable proteolytic activity. On the basis of peptide hydrolysis data gathered in Examples 2 and 5, peptide Leu-Leu-Leu-Ala-Ala-Gly (LLLAAG) was synthesized and used to prepare a hyaluronic acid-peptide-HEMA conjugate (Example 6).
# Rinsing liquid was collected from 5 individuals, two wearing hard lenses and three wearing soft lenses, at the end of the working day over multiple days. The lenses were collected using sterile nitrile gloves and rinsed with 200 μl MilliQ water on a flat glass microscope slide (Thermo Scientific) containing Grace Bio-labs Press-to-Seal silicone isolator, No PSA (Sigma Aldrich GBL664504-25EA). The rinse liquid was transferred to a Protein LoBind Tube 2.0 ml (Eppendorf) using Maxymum Recovery pipette tips (Axygen scientific). The rinse liquid was frozen at −80° C. as soon as possible. Rinsing fluid was lyophilized overnight when >1.5 ml rinsing liquid was collected for each individual.
# Hyaluronic acid-peptide-HEMA conjugates are too heterologous in mass to be directly detected by MS. […]
# The conjugate (Example 6) was dissolved in 50 mM ammonium acetate buffer at 0.2 mg/ml and analyzed by 25 μl injections on the LC-MS system. […]
# [6] = tested on: human elastase; experiment: Incubation of hyaluronic acid-peptide-HEMA conjugate with human elastase preparation, LC-MS; assay type: biochemical; settings: 35° C., data not shown
# Description: as §4
# The conjugate (Example 6) was dissolved in 50 mM ammonium acetate buffer at 0.2 mg/ml and analyzed by 25 μl injections on the LC-MS system. The LC-MS system consisted of an Accela UHPLC (Thermo Fisher, Bremen, Germany) coupled to the LTQ-Orbitrap Fourier Transform Mass Spectrometer. The column used was a ZORBAX Rapid Resolution HT SB-C18, 2.1×50 mm, 1.8 μm (Agilent 827700-902). The autosampler was set to 35° C. for incubation of the samples and the column oven was set to 50° C. The analytes in the samples were separated using a flow of 0.8 ml min^−1 and the following gradient was used: […]
# 0-0.2 min 2.5% B, 0.2-2 min 2.5-30% B, 2-2.5 min 30-80% B, 2.5-3 min 80% B, 3.01-5 min 2.5% B, where buffer A is 0.1% Formic Acid in Water (Biosolve, LC-MS grade) and buffer B is 0.1% Formic Acid in Acetonitrile (Biosolve, LC-MS grade). The MS was scanning at 7500 resolution m/z 150-800. […]
# [7] = biological target: T2, hyaluronic acid-peptide-HEMA conjugate (hyaluronic acid-Leu-Leu-Leu-Ala-Ala-Gly-HEMA)
# T2 chain: LLLAAG
# [8] = biological target: T3, peptide Gly-Pro-Leu-Ala-Leu-Leu-Ala-Gln (GPLALLAQ)
# T3 chain: GPLALLAQ
# [9] = biological target: T4, peptide Leu-Leu-Leu-Ala-Ala-Gly (LLLAAG)
# T4 chain: LLLAAG
molecule,measurement,setting,value
"AAPRAARQ (peptide sequence cleavable by proteinases present in tear fluid) [Ala-Ala-Pro-Arg-Ala-Ala-Arg-Gln, synthetic test peptide comprising Arg as a charged, basic residue]",endoproteolytic cleavage after Arg or Val by tear fluid,[1],Hydrolysis of peptide bonds involving Arg (R) is not observed
same,proteolytic cleavage observed after incubation with tear fluid (rinsing fluid),[1],only showing cleavage at the N-terminal Ala
"AAPVAARQ (peptide sequence cleavable by proteinases present in tear fluid) [Ala-Ala-Pro-Val-Ala-Ala-Arg-Gln, synthetic test peptide comprising Val instead of Arg]",endoproteolytic cleavage after Arg or Val by tear fluid,[1],Cleavage C-terminal of Val does not occur
same,proteolytic cleavage observed after incubation with tear fluid (rinsing fluid),[1],hydrolysis of the peptide bond between Pro and Val
"GPLALLAQ (peptide sequence cleavable by proteinases present in tear fluid) [Gly-Pro-Leu-Ala-Leu-Leu-Ala-Gln, linker test peptide cleavable by tear fluid proteinases]",cleavage products identified after incubation with contact lens rinsing liquid (tear fluid),"[1]; rinsing liquid of a single individual, over the weekend at 25° C.","GPLAL and LAQ, GPL and ALLAQ and GPLA and LLAQ"
same,major cleavage products after incubation with human leukocyte elastase,"[2]; 25° C., 30 minutes (FIG. 1)",GPLALL and AQ
same,major cleavage products after incubation with human lung tryptase,[3],GPLAL/LAQ
LLLAAG,conversion of intact peptide by elastase (digestion pattern),"[2]; overnight at room temperature, 50 mM ammonium acetate buffer",converted to fragment Leu-Leu-Leu-Ala (LLLA); also recorded: completely converted to LLLA
human lung tryptase,peptide cleavage products by mass spectrometry,[4],yielded GPLAL/LAQ as the major cleavage products
"hyaluronic acid-peptide-HEMA conjugate: conjugate of hyaluronic acid with NH2-Leu-Leu-Leu-Ala-Ala-Gly hexapeptide and HEMA (hydroxyethyl methacrylate) (LLLAAG; not fully specified (N-terminus, C-terminus); printed as Leu-Leu-Leu-Ala-Ala-Gly; also: conjugate with hyaluronic acid and HEMA, attachment not given here)",peptide-HEMA fragments formed upon incubation with concentrated (lyophilized) contact lens rinsing liquid,[5],formation of various peptide-HEMA fragments; also recorded: is able to cleave the peptide of the hyaluronic acid-peptide-HEMA conjugate; also recorded: LAAG-HEMA
same,peptide-HEMA fragments formed upon incubation with elastase,[6],formation of the expected AG-HEMA fragment
human leukocyte elastase (protein) IVGGRRARPHAWPFMVSLQLRGGHFCGATLIAPNFVMSAAHCVANVNVRAVRVVLGAHNLSRREPTRQVFAVQRIFENGYDPVNLLNDIVILQLNGSATINANVQVAQLPAQGRRLGNGVQCLAMGWGLLGRNRGIASVLQELNVTVVTSLCRRSNVCTLVRGRQAGVCFGDSGSPLVCNGLIHGIASFVRGGCASGLYPDAFAPVAQFVNWIDSIIQ,peptide-HEMA fragments by LC-MS,[7],showed the formation of the expected AG-HEMA fragment
same,peptide cleavage products by mass spectrometry,[8],yielded GPLALL and AQ as the major cleavage products
same,peptide cleavage products by mass spectrometry,[9],precursor peptide Leu-Leu-Leu-Ala-Ala-Gly (LLLAAG) was converted to fragment Leu-Leu-Leu-Ala (LLLA)
